For eight compounds, mutagenic call results are on record in PubChem BioAssay AID1259407 (Chemical Carcinogenesis Research Information System (CCRIS), 2018).

The source made the active and inactive calls. The rule behind the calls is not given here.

The data set relates to CCRIS mutagenicity, Ames/micronucleus/aberration tests. Kind of data set: CCRIS mutagenicity studies.
The mark [1] stands for this setting: Test System: AMES SALMONELLA TYPHIMURIUM, Strain/Indicator: TA98, Metabolic Activation: NONE, Method: STANDARD PLATE.
Where [2] appears, read: Test System: AMES SALMONELLA TYPHIMURIUM, Strain/Indicator: TA100, Metabolic Activation: NONE, Method: STANDARD PLATE.

Consider `CCC/C=C/C=O`, for which the mutagenic call is, setting by setting: (Test System: AMES SALMONELLA TYPHIMURIUM, Strain/Indicator: TA97A, Metabolic Activation: NONE, Method: DESICCATOR) “inactive; negative”; (Test System: AMES SALMONELLA TYPHIMURIUM, Strain/Indicator: TA97A, Metabolic Activation: S-9, Method: DESICCATOR) “inactive; negative”; (Test System: AMES SALMONELLA TYPHIMURIUM, Strain/Indicator: TA98, Metabolic Activation: NONE, Method: DESICCATOR) “inactive; negative”; (Test System: AMES SALMONELLA TYPHIMURIUM, Strain/Indicator: TA100, Metabolic Activation: NONE, Method: DESICCATOR) “inactive; negative”; (Test System: AMES SALMONELLA TYPHIMURIUM, Strain/Indicator: TA100, Metabolic Activation: NONE, Method: PREINCUBATION) “inactive; negative”; (Test System: AMES SALMONELLA TYPHIMURIUM, Strain/Indicator: TA100, Metabolic Activation: NONE, Method: PREINCUBATION (THREEFOLD CELL DENSITY)) “active; positive”. For the same compound, the mutagenic call by setting is: (Test System: AMES SALMONELLA TYPHIMURIUM, Strain/Indicator: TA100, Metabolic Activation: RAT, LIVER, S-9, AROCLOR 1254, Method: PREINCUBATION) “inactive; negative”; (Test System: AMES SALMONELLA TYPHIMURIUM, Strain/Indicator: TA100, Metabolic Activation: RAT, LIVER, S-9, AROCLOR 1254, Method: PREINCUBATION (THREEFOLD CELL DENSITY)) “active; positive”; (Test System: AMES SALMONELLA TYPHIMURIUM, Strain/Indicator: TA100, Metabolic Activation: S-9, Method: DESICCATOR) “inactive; negative”; (Test System: AMES SALMONELLA TYPHIMURIUM, Strain/Indicator: TA102, Metabolic Activation: S-9, Method: DESICCATOR) “inactive; negative”; (Test System: AMES SALMONELLA TYPHIMURIUM, Strain/Indicator: TA104, Metabolic Activation: NONE, Method: DESICCATOR) “inactive; negative”; (Test System: AMES SALMONELLA TYPHIMURIUM, Strain/Indicator: TA104, Metabolic Activation: NONE, Method: PREINCUBATION) “active; positive”. Moreover, the mutagenic call runs as follows: (Test System: AMES SALMONELLA TYPHIMURIUM, Strain/Indicator: TA104, Metabolic Activation: S-9, Method: DESICCATOR) “inactive; negative”; (Test System: CHINESE HAMSTER V-79, Strain/Indicator: V-79/6-THIOGUANINE, Metabolic Activation: NONE, Method: STANDARD PLATE) “active; positive”; (Test System: CHINESE HAMSTER V-79, Strain/Indicator: V-79/OUABAIN, Metabolic Activation: NONE, Method: STANDARD PLATE) “inactive; negative”.

In the case of `c1ccc2c(c1)c1cccc3c4ccccc4c4cccc2c4c13`, the mutagenic call (Test System: HUMAN H1A1V2 CELLS, Strain/Indicator: TK LOCUS, Metabolic Activation: NONE, Method: SUSPENSION/PLATE) was “active; positive”.

Take `O[C@H]1C=Cc2ccc3nc4ccc5ccccc5c4cc3c2[C@@H]1O`: the mutagenic call was “active; positive” (Test System: AMES SALMONELLA TYPHIMURIUM, Strain/Indicator: TA98, Metabolic Activation: GUINEA PIG, LIVER, S-9, 3-METHYLCHOLANTHRENE, Method: STANDARD PLATE); “active; positive” (Test System: AMES SALMONELLA TYPHIMURIUM, Strain/Indicator: TA100, Metabolic Activation: GUINEA PIG, LIVER, S-9, 3-METHYLCHOLANTHRENE, Method: STANDARD PLATE); “active; positive” (Test System: CHINESE HAMSTER V-79, Strain/Indicator: V-79/6-THIOGUANINE, Metabolic Activation: GUINEA PIG, LIVER, S-9, 3-METHYLCHOLANTHRENE).

Consider `COc1ccc2c(c1)c(CC(=O)OC(C)c1ccccc1)c(C)n2C(=O)c1ccc(Cl)cc1` (stereo not drawn), for which the mutagenic call (End Point: IN VITRO MICRONUCLEUS, Test System: CHL/IU CELLS, Metabolic Activation: NONE) was “active; positive”.

Take `N#Cc1cc(I)c(O)c([N+](=O)[O-])c1`: the mutagenic call is, setting by setting: (End Point: In vivo chromosomal aberrations, Test System: Bone marrow cells, Species: Mouse, Strain/Sex: Swiss/Male, Route: Intraperitoneal) “active; positive (structural changes)”; under setting [1], “inactive; negative”; (Test System: AMES SALMONELLA TYPHIMURIUM, Strain/Indicator: TA98, Metabolic Activation: RAT, LIVER, S-9, KANECHLOR 400, Method: STANDARD PLATE) “inactive; negative”; under setting [2], “inactive; negative”; (Test System: AMES SALMONELLA TYPHIMURIUM, Strain/Indicator: TA100, Metabolic Activation: RAT, LIVER, S-9, KANECHLOR 400, Method: STANDARD PLATE) “inactive; negative”; (Test System: AMES SALMONELLA TYPHIMURIUM, Strain/Indicator: TA1535, Metabolic Activation: NONE, Method: STANDARD PLATE) “inactive; negative”. Besides, the mutagenic call reads like this: (Test System: AMES SALMONELLA TYPHIMURIUM, Strain/Indicator: TA1535, Metabolic Activation: RAT, LIVER, S-9, KANECHLOR 400, Method: STANDARD PLATE) “inactive; negative”; (Test System: AMES SALMONELLA TYPHIMURIUM, Strain/Indicator: TA1537, Metabolic Activation: NONE, Method: STANDARD PLATE) “inactive; negative”; (Test System: AMES SALMONELLA TYPHIMURIUM, Strain/Indicator: TA1537, Metabolic Activation: RAT, LIVER, S-9, KANECHLOR 400, Method: STANDARD PLATE) “inactive; negative”; (Test System: AMES SALMONELLA TYPHIMURIUM, Strain/Indicator: TA1538, Metabolic Activation: RAT, LIVER, S-9, KANECHLOR 400, Method: STANDARD PLATE) “inactive; negative”.

Turning to `Cc1ccccc1NC(=O)c1csc([N+](=O)[O-])c1`, the mutagenic call under setting [1] is “active; positive” and the mutagenic call under setting [2] was “active; positive”.

On to `COP(=S)(OC)Oc1ccc(N)c(C)c1`, for which the mutagenic call was “inactive; negative” under setting [1]; “inactive; negative” (Test System: AMES SALMONELLA TYPHIMURIUM, Strain/Indicator: TA98, Metabolic Activation: RAT, LIVER, S-9, AROCLOR 1254, Method: STANDARD PLATE); “inactive; negative” under setting [2]; “active; positive” (Test System: AMES SALMONELLA TYPHIMURIUM, Strain/Indicator: TA100, Metabolic Activation: RAT, LIVER, S-9, AROCLOR 1254, Method: STANDARD PLATE).

With `O=C(O)c1cn(C2CC2)c2c(Cl)c(N3C[C@@H]4CCCN[C@@H]4C3)c(F)cc2c1=O`, the mutagenic call by setting is: (Test System: CHINESE HAMSTER V-79, Strain/Indicator: V-79 (HGPRT)/6-THIOGUANINE, Metabolic Activation: NONE, Method: STANDARD PLATE) “active; positive”; (Test System: CHINESE HAMSTER, Strain/Indicator: V-79(HPRT)/6-THIOGUANINE, Metabolic Activation: NONE, Method: SUSPENSION/PLATE) “active; positive”.
